Consider eight compounds from PMC8197855, “Peptide/β-Peptoid Hybrids with Activity against Vancomycin-Resistant Enterococci: Influence of Hydrophobicity and Structural Features on Antibacterial and Hemolytic Properties” (International Journal of Molecular Sciences, 2021).

≈ marks a conversion by molar mass, not a printed value.

Data set [1] relates to E. faecium ATCC 19434. In words: Broth checkerboard assay with conventional antibiotics. It is filed as cell-based, Enterococcus faecium. The note with it: antibiotic alone (-); BHI broth. The procedure: (§1) The strain culture preparation and final volume were the same as in the MIC assay. […] The plates were incubated for 24 h at 37 °C without shaking. […] All experiments were performed in two biological replicates.
(§2) To evaluate the effect of the combinations, the fractional inhibitory concentration index (FICI) was calculated for each combination according to:ΣFIC = FICA + FICB = (CA/MICA) + (CB/MICB)
(§3) The drug interaction was scored as follows: synergy—FICI ≤ 0.5; no interaction—FICI > 0.5–4; antagonism—FICI > 4 [40].

Data set [2] has as its system E. faecalis ATCC 29212. The data set is described as above. Type of data set: cell-based, Enterococcus faecalis. The note with it: antibiotic alone (-); BHI broth. On the procedure:
as §1, §2, §3

Data set [3] relates to E. faecium ATCC 19434. In words: microbe, parasite or virus in culture. It is filed as cell-based, Enterococcus faecium. Particulars: ATCC 19434, 24 h. On the procedure: (§4) Overnight cultures of the enterococcal isolates were diluted in physiological saline (0.9% NaCl) to reach a turbidity of 0.5 McFarland units (Sensititre® nephelometer and the Sensititre® McFarland Standard). Bacterial suspensions were adjusted to 5 × 10^5 CFU/mL in MHB II or BHI broth containing two-fold dilutions of peptidomimetics or conventional antibiotics in a final volume of 100 µL. The plates were incubated for 24 h at 37 °C without shaking. […] All experiments were performed in three biological replicates. […]

A further data set deals with E. faecalis 38262. In words: microbe, parasite or virus in culture. Type of data set: cell-based, Enterococcus faecalis. On the procedure:
(§5) Overnight cultures of the enterococcal isolates were diluted in physiological saline (0.9% NaCl) to reach a turbidity of 0.5 McFarland units (Sensititre® nephelometer and the Sensititre® McFarland Standard). Bacterial suspensions were adjusted to 5 × 10^5 CFU/mL in MHB II or BHI broth containing two-fold dilutions of peptidomimetics or conventional antibiotics in a final volume of 100 µL. The plates were incubated for 24 h at 37 °C without shaking. […] All experiments were performed in three biological replicates.

The next data set relates to E. faecalis 39002. The data set is described as follows: microbe, parasite or virus in culture. Type of data set: cell-based, Enterococcus faecalis. Particulars: 39002, 24 h. The procedure:
as §5

Data set [4] relates to HepG2 cell line ATCC HB-8065. The data set is described as follows: Effect on HepG2 cell viability (MTT assay). The note with it: 48 h. Type of data set: cell-based, human. On the procedure:
The effect of peptidomimetics on mammalian cell viability was determined on the HepG2 cell line ATCC HB-8065. In brief, HepG2 cells were seeded into flat-bottom 96-well plates at a concentration of 5000 cells per well. The cells were incubated for 24 h in a humidified incubator (5% CO2, 37 °C). Subsequently, the medium was removed, and the cells were incubated for 48 h in a humidified incubator (5% CO2, 37 °C) with peptidomimetics in serial dilutions. An MTT assay was then performed; in brief, after incubation with the test compounds, the culture medium was removed and fresh medium with 0.2 mg/mL MTT was then added into each well. After incubation (3 h, 37 °C, 5% CO2), the medium with MTT was removed, and 200 μL dimethyl sulfoxide was added at once to each sample. The absorbance of MTT was measured using the spectrophotometer TECAN Infinite M1000 at 540 nm. The relative viability was calculated by using the formula:ODtreated cells × 100/ODcontrol cells
The IC50 values were calculated using the program Graph Pad Prism 5.0. For all compounds, the test range was 10–1280 μg/mL.
On the technique in general: Formazan colour is commonly taken as a measure of viable cells.

A short description of another data set: Hemolytic activity. The note with it: 37 °C, 1% red blood cell suspension; for hemolysis at 60 min, 400 µg/mL: human, human red blood cells (washed, 1% suspension). Type of data set: cell-based, human. The procedure: A suspension of hRBCs (Single-donor human red blood cells—washed; catalogue No. IPLA-W3 from Innovative researchTM) was washed three times with PBS buffer and centrifuged for 5 min at 2500 rpm. A two-fold serial dilution of compounds in PBS buffer was prepared. Plates (conical-bottomed 96-well plates) with 3 replicate wells per dilution, containing 1% red blood cell suspension, were prepared and dosed with the test compound to achieve a final concentration of 400 μg/mL in a total volume of 100 μL. The plates were incubated (37 °C) for 60 min with mild agitation, and then the cells were pelleted by centrifugation at 1500 rpm for 5 min. Then, the supernatants (50 μL) were transferred to a fresh 96-well plate, and then the concentration of hemoglobin was detected by measuring the OD at 405 nm. The OD of cells incubated with 1% SDS achieved 100% hemolysis, while the OD of cells incubated with PBS buffer achieved 0% hemolysis. The concentration tested was 400 μg/mL (only average values are stated in Table 3). The percent hemolysis was calculated by using the formula:Hemolysis(%) = 100 × [(Asample − Aneg.control)/(Apos. control − Aneg.control)]

The subject of a further data set is E. faecium 1798. The data set is described as follows: microbe, parasite or virus in culture. Particulars: 1798, 24 h. It is filed as cell-based, Enterococcus faecium. The procedure: as §5
Another data set deals with E. faecium 2961. The data set is described as follows: microbe, parasite or virus in culture. It is filed as cell-based, Enterococcus faecium. The note with it: 2961, 24 h. On the procedure:
as §5

The subject of another data set is E. faecium D344R. The data set is described as follows: microbe, parasite or virus in culture. Type of data set: cell-based, Enterococcus faecium. Particulars: E. faecium D344R, human clinical isolate; 24 h. The procedure:
as §5

In another data set the test system is E. faecium 3978. The data set is described as follows: microbe, parasite or virus in culture. Type of data set: cell-based, Enterococcus faecium. The note with it: 3978, 24 h. The procedure:
as §5

For data set [5], the system named is E. faecalis ATCC 29212. In words: microbe, parasite or virus in culture. Type of data set: cell-based, Enterococcus faecalis. The note with it: ATCC 29212, 24 h. On the procedure: as §4
A short description of data set [6]: Hydrophobicity by analytical RP-HPLC (% MeCN at peak elution). It is filed as physicochemical. On the procedure:
Water was filtered by using an Evoqua LaboStar PRO TWF Ultra Pure Water System prior to use in high-performance liquid chromatography (HPLC). The retention time for each peptidomimetic was determined by analytical HPLC using a Phenomenex Luna C18(2) HST column (100 mm × 3 mm; particle size: 2.5 μm; pore size: 100 Å) on a Shimadzu Prominence and Shimadzu Nexera system using an aqueous MeCN gradient with 0.1% trifluoroacetic acid (TFA) added (eluent A: 5:95 MeCN–H2O + 0.1% TFA; eluent B: 95:5 MeCN–H2O + 0.1% TFA); a flow rate of 0.5 mL/min was used. For the elution of peptidomimetics, a linear gradient of 0% to 60% B over 10 min was used with UV detection at λ = 220 nm. The percentage MeCN at peak elution was calculated from the retention time (tR) by using the following formula:%MeCN = [0.95 × 0.6 × tR/10 + 0.05 × (1 − 0.6 × tR/10)] × 100%

Take `CC[C@H]1OC(=O)[C@H](C)[C@@H](O[C@H]2C[C@@](C)(OC)[C@@H](O)[C@H](C)O2)[C@H](C)[C@@H](O[C@@H]2O[C@H](C)C[C@H](N(C)C)[C@H]2O)[C@](C)(O)C[C@@H](C)CN(C)[C@H](C)[C@@H](O)[C@]1(C)O` [Azithromycin, azithromycin]: the MIC of antibiotic was 4 to 8 µg/mL with E. faecium ATCC 19434 [1] and 1 to 2 µg/mL with E. faecalis ATCC 29212 [2].
As for `NCCCC[C@H](NC(=O)CCN(Cc1ccc(F)cc1)C(=O)[C@H](CCCCN)NC(=O)CCN(Cc1ccc(F)cc1)C(=O)[C@H](CCCCN)NC(=O)CCN(Cc1ccc(F)cc1)C(=O)[C@H](CCCCN)NC(=O)CCN(Cc1ccc(F)cc1)C(=O)[C@H](CCCCN)NC(=O)CCN(Cc1ccc(F)cc1)C(=O)[C@H](CCCCN)NC(=O)CCN(Cc1ccc(F)cc1)C(=O)[C@H](CCCCN)NC(=O)CCN(Cc1ccc(F)cc1)C(=O)[C@@H](N)CCCCN)C(=O)N(CCC(N)=O)Cc1ccc(F)cc1` [Compound 7, H-[Lys-βNPhe(F)]8-NH2], the Minimum inhibitory concentration in the data set with E. faecium ATCC 19434 [3] is 8 to 16 µg/mL; with E. faecalis 38262 (E. faecalis 38262, veterinary isolate, 24 h) it was greater than 32 µg/mL; in the data set on E. faecalis 39002, 8 to 16 µg/mL; in the data set with E. faecium 1798, 2 to 4 µg/mL; in the data set with E. faecium 2961 it was 2 to 4 µg/mL; with E. faecium D344R, 4 to 8 µg/mL. Besides, the Minimum inhibitory concentration with E. faecium 3978 was in the range of 4 to 8 µg/mL; in the data set on E. faecalis ATCC 29212 [5], 8 to 16 µg/mL. In data set [4], the “HepG2 IC50” value was 50 µg/mL. In “Hemolytic activity”, this compound came in with a hemolysis at 60 min, 400 µg/mL of 1.5%. Also, the “Hydrophobicity, Luna C18(2) HST (0–60% B; 10 min), retention converted into % MeCN” value in data set [6] was determined as 41.3 % MeCN.
Regarding `NCCCC[C@H](NC(=O)CCN(Cc1cc(F)c(F)c(F)c1)C(=O)[C@H](CCCCN)NC(=O)CCN(Cc1cc(F)c(F)c(F)c1)C(=O)[C@H](CCCCN)NC(=O)CCN(Cc1cc(F)c(F)c(F)c1)C(=O)[C@H](CCCCN)NC(=O)CCN(Cc1cc(F)c(F)c(F)c1)C(=O)[C@H](CCCCN)NC(=O)CCN(Cc1cc(F)c(F)c(F)c1)C(=O)[C@@H](N)CCCCN)C(=O)N(CCC(N)=O)Cc1cc(F)c(F)c(F)c1` [Compound 8, H-[Lys-βNPhe(F3)]6-NH2], the Minimum inhibitory concentration in the data set with E. faecium ATCC 19434 [3] was 2 to 4 µg/mL; in the data set with E. faecalis 38262 (38262, 24 h), 8 to 16 µg/mL; in the data set on E. faecalis 39002, 2 µg/mL (≈ 0.963 µM); in the data set on E. faecium 1798, 2 to 4 µg/mL; in the data set with E. faecium 2961, 2 µg/mL (≈ 0.963 µM); in the data set on E. faecium D344R, 2 µg/mL (≈ 0.963 µM). The Minimum inhibitory concentration in the data set with E. faecium 3978 was 2 µg/mL (≈ 0.963 µM); in the data set with E. faecalis ATCC 29212 [5] it was 2 to 4 µg/mL. Besides, the “HepG2 IC50” value in [4] is on record as 27 µg/mL. Further, the hemolysis at 60 min, 400 µg/mL in “Hemolytic activity” is greater than 20%.
Take `NCCCC[C@H](NC(=O)CCN(CC1CCCCC1)C(=O)[C@H](CCCCN)NC(=O)CCN(CC1CCCCC1)C(=O)[C@H](CCCCN)NC(=O)CCN(CC1CCCCC1)C(=O)[C@H](CCCCN)NC(=O)CCN(CC1CCCCC1)C(=O)[C@H](CCCCN)NC(=O)CCN(CC1CCCCC1)C(=O)[C@H](CCCCN)NC(=O)CCN(CC1CCCCC1)C(=O)[C@H](CCCCN)NC(=O)CCN(CC1CCCCC1)C(=O)[C@@H](N)CCCCN)C(=O)N(CCC(N)=O)CC1CCCCC1` [Compound 9, H-[Lys-βNCha]8-NH2]: the Minimum inhibitory concentration in the data set on E. faecium ATCC 19434 [3] was 2 to 4 µg/mL; in the data set on E. faecalis 38262 (38262, 24 h) it was 8 µg/mL (≈ 3.36 µM); with E. faecalis 39002, 4 µg/mL (≈ 1.68 µM); with E. faecium 1798 it was 2 to 4 µg/mL; with E. faecium 2961, 2 to 4 µg/mL; in the data set on E. faecium 3978, 2 to 4 µg/mL. In the data set with E. faecalis ATCC 29212 [5], this compound had a Minimum inhibitory concentration of 2 to 4 µg/mL. For the same compound, the hemolysis in the data set “Hemolytic activity” (400 µg/mL, 60 min) was greater than 20%.
In the case of `CCCCCCCCCCCC(=O)N[C@@H](CCCCN)C(=O)N(CCC(=O)N[C@@H](CCCCN)C(=O)N(CCC(=O)N[C@@H](CCCCN)C(=O)N(CCC(=O)N[C@@H](CCCCN)C(=O)N(CCC(=O)N[C@@H](CCCCN)C(=O)N(CCC(=O)N[C@@H](CCCCN)C(=O)N(CCC(N)=O)Cc1ccccc1)Cc1ccccc1)Cc1ccccc1)Cc1ccccc1)Cc1ccccc1)Cc1ccccc1` [Compound 11, Lau-[Lys-βNPhe]6-NH2], the Minimum inhibitory concentration in the data set with E. faecium ATCC 19434 [3] was 4 µg/mL (≈ 2.07 µM); in the data set on E. faecalis 38262 (38262, 24 h), 4 to 8 µg/mL; in the data set on E. faecalis 39002 it was 4 to 8 µg/mL; in the data set on E. faecium 1798 it was 2 to 4 µg/mL; with E. faecium 2961, 2 to 4 µg/mL; in the data set on E. faecium D344R, 2 to 4 µg/mL. Further, the values for the Minimum inhibitory concentration in the data set on E. faecium 3978 and in the data set with E. faecalis ATCC 29212 [5] were 2 to 4 µg/mL and 4 µg/mL (≈ 2.07 µM), respectively. The “HepG2 IC50” value in data set [4] is on record as 22 µg/mL.
Turning to `CNC(C)C1CCC(N)C(OC2C(N)CC(N)C(OC3OCC(C)(O)C(NC)C3O)C2O)O1` (stereo not shown) [Gentamicin, gentamicin], the values for the MIC of antibiotic in the data set with E. faecium ATCC 19434 [1] and with E. faecalis ATCC 29212 [2] were 64 µg/mL and 16 µg/mL, respectively.
The like results for `CC(=O)NC[C@H]1CN(c2ccc(N3CCOCC3)c(F)c2)C(=O)O1` [Linezolid, linezolid] were, in that order, 2 µg/mL and 2 µg/mL.
For `CO[C@H]1/C=C/O[C@@]2(C)Oc3c(C)c(O)c4c(O)c(c(/C=N/N5CCN(C)CC5)c(O)c4c3C2=O)NC(=O)/C(C)=C\C=C\[C@H](C)[C@H](O)[C@@H](C)[C@@H](O)[C@@H](C)[C@H](OC(C)=O)[C@@H]1C` [Rifampicin, rifampicin] the same measures were 8 µg/mL and 1 µg/mL.
